{"source": "patent US20030134779A1", "about": "“Method and composition for treatment and/or prevention of antibiotic-resistant microorganism infections” (priority 2002, published 2003)", "assay_in_all_cases": "Checkerboard MICs and FIC index, penicillin with bovine LF", "format_in_all_cases": "cell-based, Staphylococcus aureus", "key": {"S. aureus ATCC 25923": {"test_system": "S. aureus ATCC 25923", "protocol": "(§1) The MICs were determined by both macrodilution (1 ml/tube) and microdilution (100 μl/well) in sterile 96 well microtiter plates (International Nunc, Napierville, Ill.) techniques in three separate experiments according to the National Committee for Clinical Laboratory Standards (1992 and 1999) in three separate experiments. Serial 2-fold dilutions in MHB of LF, LFC, antibiotic or combination of LF or LFC with antibiotic were inoculated with an overnight culture at a final inoculum of 10^6 cfu/ml in MHB. Effect of LF combination with antibiotic on MICs were determined by adding 0.5 mg or 1 mg/ml of LF to each antibiotic dilution. The MIC was defined as the lowest concentration of drug (highest dilution) that caused a complete inhibition of bacterial growth after an incubation of 18 h. Effect of LF or LFC combination with antibiotic on MIC was also determined by checkerboard method using 96 well microtiter plates. Each antibiotic dilution (50 μl) was serially added to the wells in vertical rows starting from the top (lower dilution) to the bottom. Lactoferrin or LFC (50 μl) were added to 50 μl of each antibiotic dilution and serially diluted starting at the left (lower dilution) to the right. After inoculation, the final concentration of antibiotic from top to bottom were 32 to 8, 2 to 0.5, 0.5 to 0.125 μg/ml for penicillin, cefazolin and neomycin, respectively. From left to right, the concentration of LF or LFC were 25 to 0.0244 mg/ml or 256 to 0.5 μg/ml respectively in a final volume of 100 μl/well. The microplate's were incubated at 37° C. for 24 h. Bacterial growth was measured optically at 540 nm using Spectra Max 250 Microplate Spectrophotometer System of Molecular Device (Fisher Scientific, Ottawa, Canada). Tubes were incubated at 37° C. for 18 h and bacterial growth was measured by visual examination and optically at 540 nm using a spectrophotometer (Philips PU 8800; Pye Unican Ltd, Cambridge, UK). The fractional inhibitory concentration (FIC) was calculated as described by Eliopoulos and Moellering (1991).\n(§2) FIC antibiotic A=MICantibiotic A (in the presence of antibiotic B)/MICantibiotic A alone. FIC Index=FICantibiotic A+FICantibiotic B\n(§3) The effects of the antibiotics were considered to be synergistic or indifferent when FIC Index was<1 or>1, respectively."}, "S. aureus SHY97-4320": {"test_system": "S. aureus SHY97-4320", "details": "for Decrease (of MIC of penicillin): by combination with bovine LF", "protocol": "as §1, §2, §3"}, "S. aureus SHY97-3906": {"test_system": "S. aureus SHY97-3906", "details": "for Decrease (of MIC of penicillin): by combination with bovine LF", "protocol": "as §1, §2, §3"}, "S. aureus PC-1": {"test_system": "S. aureus PC-1", "details": "by combination with bovine LF", "protocol": "as §1, §2, §3"}}, "data": [{"smiles": "CC1(C)S[C@@H]2[C@H](NC(=O)Cc3ccccc3)C(=O)N2[C@H]1C(=O)O", "note": "[penicillin G, Penicillin G]", "values": [{"measurement": "MIC", "setting": "S. aureus ATCC 25923; Staphylococcus aureus, ATCC25923, in combination with bovine LF, checkerboard", "result": 0.0156, "unit": "µg/mL"}, {"measurement": "Decrease (of MIC of penicillin)", "setting": "S. aureus ATCC 25923; by combination with bovine LF", "result": 2, "unit": "fold"}, {"measurement": "MIC", "setting": "S. aureus SHY97-4320; Staphylococcus aureus, SHY974320, in combination with bovine LF, checkerboard", "result": 16, "unit": "µg/mL"}, {"measurement": "Decrease (of MIC of penicillin)", "setting": "S. aureus SHY97-4320; listed as Penicillin", "result": 4, "unit": "fold"}, {"measurement": "Decrease (of MIC of penicillin)", "setting": "S. aureus SHY97-4320; listed as penicillin", "result": "four fold"}, {"measurement": "MIC", "setting": "S. aureus SHY97-3906; Staphylococcus aureus, SHY973906, in combination with bovine LF, checkerboard", "result": 0.125, "unit": "µg/mL"}, {"measurement": "Decrease (of MIC of penicillin)", "setting": "S. aureus SHY97-3906; listed as Penicillin", "result": 4, "unit": "fold"}, {"measurement": "Decrease (of MIC of penicillin)", "setting": "S. aureus SHY97-3906; listed as penicillin", "result": "four fold"}, {"measurement": "Decrease (of MIC of penicillin)", "setting": "S. aureus PC-1; listed as Penicillin", "result": "≧2 fold"}, {"measurement": "Decrease (of MIC of penicillin)", "setting": "S. aureus PC-1; listed as penicillin", "result": "≥ 2", "unit": "fold"}]}]}
